Key:
hIno80ΔIes2 complex = molecular target: T1, hIno80ΔIes2 complex (Homo sapiens, UniProt Q9ULG1); details: basal, no nucleosome; ATP:MgCl2:TRIS base 1:1:2; 37°C
T1 construct: gene INO80

SC2 = molecular target: T2, SC2 (Homo sapiens, UniProt Q9ULG1); assay: coupled NADH fluorescence ATPase assay (PK/LDH); format: biochemical; details: 1 mM ATP, 100 nM nucleosome, 37°C
T2 construct: gene INO80; insect cells; with RuvB-like 1; RuvB-like 2

[1] = molecular target: T3, hIno80 core complex (wild type) (Homo sapiens, UniProt Q9ULG1); design: gene INO80; details: basal, no nucleosome; ATP:MgCl2:TRIS base 1:1:2; 37°C
Text: coupled NADH fluorescence ATPase assay (PK/LDH) on hIno80 core complex (wild type)

[2] = molecular target: T3, hIno80 core complex (wild type); assay: coupled NADH fluorescence ATPase assay (PK/LDH); format: biochemical; design: gene INO80; nine-subunit core, Ino80 267-1556 with N-terminal 8-His and C-terminal twin Strep-tag II; codon-optimised genes, BTI-TN-5B1-4 insect cells (MultiBac); calculated 743583 Da, SEC-MALS 802 kDa; actin gene not specified; Actin-like protein 6A; Actin-related protein 5; Actin-related protein 8; INO80 complex subunit B; INO80 complex subunit C; RuvB-like 1; RuvB-like 2; details: 100 nM H2A nucleosome, ATP varied, 5 mM Mg2+, 37°C; non-competitive with ATP, competitive with nucleosomes; allosteric

T2 sequence (Q9ULG1 487-1556): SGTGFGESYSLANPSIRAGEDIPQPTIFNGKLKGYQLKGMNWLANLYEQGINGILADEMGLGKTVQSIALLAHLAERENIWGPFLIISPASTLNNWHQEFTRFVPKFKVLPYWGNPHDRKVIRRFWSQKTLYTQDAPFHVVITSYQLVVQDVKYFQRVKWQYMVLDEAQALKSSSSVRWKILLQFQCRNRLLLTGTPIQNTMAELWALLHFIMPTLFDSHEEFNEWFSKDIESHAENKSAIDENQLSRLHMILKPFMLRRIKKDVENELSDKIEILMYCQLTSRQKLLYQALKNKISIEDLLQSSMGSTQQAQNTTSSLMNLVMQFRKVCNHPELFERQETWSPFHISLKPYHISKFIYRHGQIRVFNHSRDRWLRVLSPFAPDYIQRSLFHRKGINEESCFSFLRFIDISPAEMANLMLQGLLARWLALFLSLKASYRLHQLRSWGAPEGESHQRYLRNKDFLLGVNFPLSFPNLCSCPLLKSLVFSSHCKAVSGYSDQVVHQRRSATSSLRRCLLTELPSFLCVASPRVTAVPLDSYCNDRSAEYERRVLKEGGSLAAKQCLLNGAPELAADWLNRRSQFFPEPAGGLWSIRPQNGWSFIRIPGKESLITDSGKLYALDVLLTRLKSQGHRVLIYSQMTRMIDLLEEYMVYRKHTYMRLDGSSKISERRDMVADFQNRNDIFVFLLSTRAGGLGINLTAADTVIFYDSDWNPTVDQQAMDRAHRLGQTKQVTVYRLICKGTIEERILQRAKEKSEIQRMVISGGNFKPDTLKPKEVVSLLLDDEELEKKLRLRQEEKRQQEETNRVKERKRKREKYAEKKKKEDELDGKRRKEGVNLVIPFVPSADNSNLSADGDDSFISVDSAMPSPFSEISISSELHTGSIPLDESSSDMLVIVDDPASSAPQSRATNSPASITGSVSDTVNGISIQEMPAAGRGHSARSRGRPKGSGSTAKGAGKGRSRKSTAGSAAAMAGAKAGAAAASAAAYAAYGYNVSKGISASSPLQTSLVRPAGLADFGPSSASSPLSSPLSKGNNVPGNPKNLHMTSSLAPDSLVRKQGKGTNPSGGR
T2 sequence (Q9Y265 whole entry partner): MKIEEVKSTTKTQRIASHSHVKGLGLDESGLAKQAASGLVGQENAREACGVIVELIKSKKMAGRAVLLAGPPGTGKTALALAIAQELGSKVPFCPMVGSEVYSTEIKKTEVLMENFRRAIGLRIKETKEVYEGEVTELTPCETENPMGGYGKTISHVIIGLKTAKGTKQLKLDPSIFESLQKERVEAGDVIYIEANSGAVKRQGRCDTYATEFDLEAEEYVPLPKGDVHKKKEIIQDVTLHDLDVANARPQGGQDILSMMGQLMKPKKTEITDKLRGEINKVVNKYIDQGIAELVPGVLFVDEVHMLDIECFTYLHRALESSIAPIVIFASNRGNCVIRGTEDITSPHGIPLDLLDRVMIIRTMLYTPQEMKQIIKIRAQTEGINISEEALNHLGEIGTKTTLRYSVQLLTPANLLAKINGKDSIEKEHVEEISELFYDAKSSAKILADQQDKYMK
T2 sequence (Q9Y230 2-463 partner): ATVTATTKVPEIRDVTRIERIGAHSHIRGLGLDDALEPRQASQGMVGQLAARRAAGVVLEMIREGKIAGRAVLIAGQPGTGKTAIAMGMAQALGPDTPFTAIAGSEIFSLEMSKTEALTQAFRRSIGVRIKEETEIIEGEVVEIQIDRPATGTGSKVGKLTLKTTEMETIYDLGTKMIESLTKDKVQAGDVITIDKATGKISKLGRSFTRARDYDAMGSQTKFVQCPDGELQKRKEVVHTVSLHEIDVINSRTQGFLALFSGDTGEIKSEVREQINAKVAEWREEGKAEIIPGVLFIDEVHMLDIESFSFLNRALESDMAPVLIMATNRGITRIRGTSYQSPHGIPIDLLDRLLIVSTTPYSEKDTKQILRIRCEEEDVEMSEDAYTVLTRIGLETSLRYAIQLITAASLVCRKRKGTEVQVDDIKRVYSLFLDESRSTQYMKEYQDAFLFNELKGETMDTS

Row | Compound | Km (hIno80ΔIes2 complex) | coupled NADH fluorescence ATPase assay (PK/LDH) (SC2) | Km [1] | Ki [2]
1 | Nc1ncnc2c1ncn2[C@@H]1O[C@H](COP(=O)(O)OP(=O)(O)OP(=O)(O)O)[C@@H](O)[C@H]1O [ATP] | 326 ± 44 µM | Single point inhibition of Ino80 and SC2. | 171 ± 55 µM | 
2 | O=P(O)(O)O[C@H]1[C@H](OP(=O)(O)O)[C@@H](OP(=O)(O)O)[C@H](OP(=O)(O)O)[C@@H](OP(=O)(O)O)[C@H]1OP(=O)(O)O [IP6] |  |  |  | 37 ± 4 µM
